Reference: patent US5496843A, “Tricyclic indole-2-carboxylic acid derivatives” (Sumitomo Pharmaceuticals Company, Limited, priority 1993, dated 1996)

Assays:
[1] = tested on: strychnine-insensitive glycine modulatory site of NMDA (N-methyl D-aspartate) receptors; assay: [3H] glycine binding studies; settings: 10 ng/mL test compound; 10 nM [3H] glycine; rat brain synaptic membrane preparation
Experimental: (§1) The activities of the compounds were measured by [^3 H] DCKA and [^3 H] glycine binding inhibition studies as illustrated below. [^3 H] glycine binding studies
(§2) A crude rat brain synaptic membrane preparation was washed three times by centrifugation at 50,000×g for 30 min with 50 mM tris acetate (pH 7.4). The pellets obtained were suspended in 0.23M sucrose solution and stored at -80° C. For binding studies, the frozen suspension was thawed, treated with 0.08% triton X-100 at 2° C. for 10 min, and washed twice by the centrifugation as mentioned above. The synaptic membrane thus prepared (ca. 150~200 μg of protein) was incubated with 10 nM [^3 H] glycine (1.11 TBq/mmol) and the test compound (10 ng/mL~0.1 ng/mL) at 2° C. for 10 min in 50 mM tris acetate (pH 7.4). The incubation was terminated by suction filtration using Whatman GF/B glass filter. The radioactivity bound to the membrane on the filter was measured by scintillation counting. Non-specific binding was calculated by the radioactivity measured under the incubations in the presence of 0.1 mM D-serine. The [3H] glycine binding was not inhibited by addition of 0.1 mM strychnine.

[2] = tested on: NMDA-induced tonic seizures; assay: NMDA-induced seizure model; format: in vivo; settings: 30 mg/kg, i.p., 30 min before NMDA (5 nmol) i.c.v.; mice
Experimental: The compounds of the present invention attenuated strongly NMDA-induced seizure under systemic administration in the following in vivo model. NMDA-induced seizure model Thirty min later following intraperitoneal administration of the test compound (0.3~30 mg/kg) into each of ten mice tested, NMDA (5 nmol) was administered intracerebroventricularly (i.c.v.).

[3] = tested on: strychnine-insensitive glycine modulatory site of NMDA (N-methyl D-aspartate) receptors; assay: [3H] DCKA binding studies; settings: 10 ng/mL test compound; 10 nM [3H] DCKA; rat brain synaptic membrane preparation
Experimental: as §1
[^3 H] DCKA binding studies
as §2, with “100” for “150~200”, “(DCKA) (603 GBq/mmol)” for “glycine (1.11 TBq/mmol)”, “ng/mL~0.1ng/mL)” for “ng/mL~0.1 ng/mL)”, “glycine. […] DCKA binding.” for “D-serine. The [3H] glycine binding was not inhibited by addition of 0.1 mM strychnine.”

`Cl.NCc1ccc(NC(=O)CC2CCc3cc(Cl)cc4[nH]c(C(=O)O)c2c34)c(CC(=O)O)c1` (stereo not drawn) [Example 5, 7-Chloro-3-[p-aminomethyl-o-(carboxymethyl)phenylcarbamoylmethyl]-1,3,4,5-tetrahydrobenz[cd]indole-2-carboxylic acid hydrochloride] was tested, and the “inhibition of the [3H] glycine binding” value [1] was 69%, the “protection from tonic seizures” value [2] was 90% and the “inhibition of the [3H] DCKA binding” value [3] was 94%.
